Like-named read-outs stand apart in the source and are kept apart here.
Columns and labels:
[1] = Acute toxicity / mortality, oral, mice; format: in vivo; conditions: mouse, in vivo; for LD50: oral; for mortality: read-out: Percentage of mortality with mice
Text: As is shown by the preceding results and by those given in Table XIV below, the difference between pharmacologically active doses and lethal doses is sufficiently great to allow the use of compounds of formula (I) in therapeutics.

[2] = test system: ptosis caused by reserpine; experiment: Anti-depressive: antagonism against ptosis caused by intravenous reserpine; format: in vivo; conditions: for ED50: po, read-out: Antagonism against ptosis caused by reserpine (DE50)
Method: (§1) In this regard, the compounds of formula I differ unexpectedly from the compounds of U.S. Pat. No. 3,726,900, as shown by comparative testing.
(§2) The anti-depressive properties of additional analog compounds were tested by the same tests. In these tests, the comparison compounds had the formula [drawing 28] The specific compounds tested and the test results are indicated in Table XIII.

[3] = test system: lethal effect of yohimbine; experiment: Anti-depressive: potentialization of lethal effect of yohimbine; format: in vivo
Method: as §1, §2

[4] = test system: ventricular fibrillations caused by inhaling chloroform; experiment: Antiarythmic: ventricular fibrillations caused by inhaling chloroform in mouse; format: in vivo; conditions: ip, intraperitoneal, read-out: Antagonism to fibrillations caused by chloroform with a mouse, DE50
Text: Administered intraperitoneally, the compounds of formula (I) are able to protect the mouse against ventricular fibrillations caused by inhaling chloroform.

[5] = test system: isolated duodenum of a rat (barium chloride); experiment: Spasmolytic: contraction by barium chloride of isolated duodenum of a rat
Method: Compounds of formula I, introduced in the survival medium, are capable of opposing the contacting action of barium chloride on the isolated duodenum of a rat. This activity is determined either by taking papaverine as the standard or by calculating the DE50 of the compound tested.

[6] = test system: painful stretchings following intraperitoneal injection of acetic acid; experiment: Analgesic: painful stretchings following intraperitoneal acetic acid in mouse; format: in vivo; conditions: 100 mg/kg/PO, read-out: Percentage reduction in the number of painful stretchings
Text: The compounds of formula (I) administered orally to a mouse are capable of reducing the number of painful stretchings following the intraperitoneal injection of acetic acid.

[7] = test system: isolated fundus of rats (serotonine); experiment: Antiserotonine: contractions of the isolated fundus of rats provoked by serotonine; conditions: in vitro
Text: (§3) For purposes of comparison, compounds of the formula (I) were compared, as to their antiserotonine properties, with a respresentative sampling of compounds disclosed in U.S. Pat. No. 3,726,900. The comparison compounds tested have the formula [drawing 23]

[8] = test system: bronchoconstrictions provoked by serotonine; experiment: Antiserotonine: bronchoconstrictions provoked by intravenous serotonine in guinea pigs (Konzett and Rossler test); format: in vivo; conditions: Cavia porcellus, serotonine bronchoconstriction, read-out: Test of Konzett and Rossler DE50
Text: as §3

[9] = test system: arterial pressure; experiment: Hypotensive: arterial pressure of anaesthetized rat; format: in vivo; conditions: 1 mg/kg/IV
Text: Administered intravenously to an anaesthetized rat, the compounds of formula (I) cause a lowering of arterial pressure.

[10] = test system: isolated tied uterus (serotonine); experiment: Antiserotonine: contractions of the isolated tied uterus provoked by serotonine; conditions: in vitro
Text: as §3

[11] = test system: cough caused by stimulation of the upper laryngeal nerve; experiment: Anti-cough: cough caused by stimulation of the upper laryngeal nerve in an anaesthetized cat; format: in vivo; conditions: 1 mg/kg/IV
[12] = mice, Table XI, read-out: LD50 (mice)

## CCNCC1COC2(O1)c1ccccc1CCc1ccccc12 (centres unmarked) [R = C2 H5 (--Z-- = --CH2 --CH2 --), reference compound]
[1]; Table XIII, read-out: LD50
  LD50: 550 mg/kg
[2]; Table XIII
  ED50: ~50 mg/kg

## CCNCC1COC2(O1)c1ccccc1C=Cc1ccccc12 (centres unmarked) [R = C2 H5 (--Z-- = --CH = CH--), reference compound]
[3]; at 50 mg/kg/PO, Table XIII
  Potentialization of lethal effect of yohimbine: 60%
[1]; Table XIII, read-out: LD50
  LD50: 375 mg/kg
[2]; Table XIII
  ED50: 70 mg/kg

## CC(C)NCC1COC2(O1)c1ccccc1C=Cc1ccccc12 (centres unmarked) [R = C3 H7 (i) (--Z-- = --CH = CH--), reference compound]
[1]; Table XIII, read-out: LD50
  LD50: 550 mg/kg
[2]; at 50 mg/kg/PO, Table XIII
  Antagonism against ptosis caused by reserpine: 20%

## CCC(C)NCC1COC2(O1)c1ccccc1CCc1ccccc12 (centres unmarked) [R = C4 H9 (s) (--Z-- = --CH2 --CH2 --), reference compound]
[3]; at 50 mg/kg/PO, Table XIII
  Potentialization of lethal effect of yohimbine: ~40%
[1]; Table XIII, read-out: LD50
  LD50: 900 mg/kg
[2]; Table XIII
  ED50: 45 mg/kg

## CNCC1COC2(O1)c1ccccc1CCc1ccccc12 (centres unmarked) [R = CH3 (--Z-- = --CH2 --CH2 --), reference compound]
[1]; Table XIII, read-out: LD50
  LD50: 850 mg/kg
[2]; Table XIII
  ED50: 60 mg/kg

## CNCC1COC2(O1)c1ccccc1C=Cc1ccccc12 (centres unmarked) [R = CH3 (--Z-- = --CH = CH--), reference compound]
[1]; Table XIII, read-out: LD50
  LD50: 750 mg/kg
[2]; Table XIII
  ED50: 25 mg/kg

## CCCN(CCC)C(=O)CN1CCN(CC2COC3(O2)c2ccccc2C=Cc2ccccc23)CC1 (centres unmarked) [compound 7204, -4'-[N'-(di-n-propylaminocarbonylmethyl) N-piperazinylmethyl] spiro [dibenzo(a,d)cycloheptatriene-5:2' dioxolane (1',3')] dimaleate]
[1]; 1900 mg/kg/PO
  mortality: ~50%
[1]; [12]
  LD50: 1900 mg/kg
[4]
  ED50: 100 mg/kg
[5]
  DE50 (spasmolytic): 2.50 µg/mL
[6]
  inhibition in vivo at 100 mg/kg: 70%
[7]
  Antagonisms against contractions of fundus of rat, DE50: 0.07 µg/mL

## C1=Cc2ccccc2C2(OCC(CN3CCCC3)O2)c2ccccc21 (centres unmarked) [compound 70301, reference compound]
[1]; [12]
  LD50: 425 mg/kg
[8]
  ED50: 0.4 mg/kg

## C1=Cc2ccccc2C2(OCC(CN3CCCCC3)O2)c2ccccc21 (centres unmarked) [compound 70315, reference compound]
[1]; [12]
  LD50: 700 mg/kg
[2]; at 75 mg/kg/PO
  Antagonism against ptosis caused by reserpine: 45%
[8]
  ED50: 1.4 mg/kg

## O=C(CN1CCN(CC2COC3(O2)c2ccccc2CCc2ccccc23)CC1)N1CCCC1 (centres unmarked) [compound 70339]
[3]; at 100 mg/kg/PO, result in words
  Potentialization of lethal effect of yohimbine: Inactive
[1]; 1200 mg/kg/PO
  mortality: ~50%
[1]; [12]
  LD50: 1200 mg/kg
[5]; relative to papaverine as the standard
  Spasmolytic activity: 1 × papaverine
[9]
  Reduction of arterial pressure, duration: > 30 mm
  Reduction of arterial pressure, intensity: 80%
[6]
  inhibition in vivo at 100 mg/kg: 75%
[10]
  Antagonisms against contractions of tied uterus, DE50: 0.002 µg/mL
[11]
  Reduction of cough, duration: 20 mm
  Reduction of cough, intensity: 100%
[2]; at 100 mg/kg/PO
  Antagonism against ptosis caused by reserpine: Inactive
[8]
  ED50: 0.1 mg/kg
[7]
  Antagonisms against contractions of fundus of rat, DE50: 0.67 µg/mL

Source: patent US4049660A, “N-substituted derivatives of 4 (N-piperazinylmethyl) spiro dibenzocycloheptadi- (or tri-) ene-5, 2-dioxolane (1,3) their method of preparation and their application in therapeutics” (Delalande S.A., priority 1971, dated 1977)
